pIC50: −log10 of the molar value. Activity calls are given as the source filed them. No cut-off for these calls is given here.
How the values were obtained:
HL-60 = assay: In vitro antiproliferative activity against human promyelocytic (HL-60) cells; format: functional, cell-based
Cavia porcellus [1] = species: Cavia porcellus; assay: Phototoxicity (10 mg/cm**2) was evaluated; highly toxic; format: functional, organism-based
HeLa = assay: In vitro antiproliferative activity against human cervix adenocarcinoma (HeLa) cells; format: functional, cell-based
Cavia porcellus [2] = assay: Compound was evaluated for the erythema formation; +++ means severe erythema with edema; format: functional, organism-based
Cavia porcellus [3] = species: Cavia porcellus; assay: Phototoxicity (50 mg cm e-2) was evaluated; No phototoxicity; format: functional, organism-based

## COc1c2occc2cc2ccc(=O)oc12 [METHOXSALEN]
HL-60
  pIC50: 5.27
Cavia porcellus [1]
  Phototoxicity: Toxic
HeLa
  pIC50: 5.00
Cavia porcellus [2]
  Erythema formation: Active

## Cc1cc(=O)oc2c1c(O)cc1oc3ccccc3c12
HL-60
  pIC50: 5.16
Cavia porcellus [3]
  Phototoxicity: No phototoxicity
HeLa
  pIC50: < 4.70

## COc1cc2oc3ccccc3c2c2oc(=O)cc(C)c12
HL-60
  pIC50: < 4.70
Cavia porcellus [3]
  Phototoxicity: No phototoxicity
HeLa
  pIC50: < 4.70

## Cc1cc(=O)oc2c1c(OCCCN(C)C)cc1oc3ccccc3c12
HL-60
  pIC50: 6.28
Cavia porcellus [3]
  Phototoxicity: No phototoxicity
HeLa
  pIC50: 5.95

Reference: ChEMBL document CHEMBL1132756, “A new benzoangelicin with strong photobiological activity” (Bioorg Med Chem Lett, 2000)
